In patent US5006512A, “Therapeutic usages of inhibitors for a potassium efflux channel” (priority 1988, dated 1991):
“Also recorded” adds a separate entry of the source.

Key:
[1] = tested on: mice; experiment: Acute toxicity (LD50) in mice, i.p.; type: in vivo
[2] = tested on: brain focal ischemia; experiment: Brain focal ischemia, motor performance test; type: in vivo, rat; conditions: 0.14 mg/kg
Description: (a) Surgical procedures: Adults male Sprague-Dwaley rats weighing 250-300 g were used in these studies. Anesthesia was induced and maintained with halothane (1.0-2.5%) via closely fitted facial mask. Bilateral common carotid arteries (CCA) were exposed gently and the right CCA was ligated in two places by 4-0 silk suture. To expose the right middle cerebral artery (MCA), the temporal muscles were cut and retracted, then, a small temporal craniotomy (2=2 mm) was performed with a microdrill. Under a microscope, the dura matter was opened with a 26 guage needle, and the MCA was ligated by 10-0 suture with a square knot. Immediately, the left CCA was occluded by a microaneurysmal clip. After the operation, the animal was returned to the cage. One hour later, the left CCA clip was released under awake condition. […]
(c) Motor performance test: The disturbance of motor function was evaluated by the total score obtained from inclined plate test, balance beam test and prehensile test. These motor performance tests were dsesigned to quantify the motor weakness in the global ischemia rats. […] The animal was placed at the highest position of the plate and the time which it could stay on the plate was measured untill 30 sec. […] The time spent on the rod was recorded untill 30 sec. […] The time spent in hanging on the rope was measured untill 30 sec. […]

[3] = tested on: brain ischemia; experiment: Brain focal ischemia, water content of hemisphere (brain edema); type: in vivo, rat; conditions: 0.14 mg/kg i.v. thirty minutes prior to ischemic insult; 1 hour focal ischemia
Description: (a) Surgical procedures: Adults male Sprague-Dwaley rats weighing 250-300 g were used in these studies. Anesthesia was induced and maintained with halothane (1.0-2.5%) via closely fitted facial mask. Bilateral common carotid arteries (CCA) were exposed gently and the right CCA was ligated in two places by 4-0 silk suture. To expose the right middle cerebral artery (MCA), the temporal muscles were cut and retracted, then, a small temporal craniotomy (2=2 mm) was performed with a microdrill. Under a microscope, the dura matter was opened with a 26 guage needle, and the MCA was ligated by 10-0 suture with a square knot. Immediately, the left CCA was occluded by a microaneurysmal clip. After the operation, the animal was returned to the cage. One hour later, the left CCA clip was released under awake condition. The sham-operated control was produced in a similar procedure, except for the ligation and clipping of vessels. The operation was usually finished within 30 min.
(b) Water content and ionic analysis: After fixed time interval (1, 3, and 7 days), the animal was sacrificed and the excised cerebral hemispheres were placed in preweighed crucible and measured an wet weight (W.W) with a chemical balance (Mettler, AE 100). […] The water content (% wet weight) was calculated by (W.W -D.W)/W.W. […]

[4] = tested on: sickle red blood cells; experiment: Formation of irreversibly sickled cells by sickling-unsickling cycling in vitro; type: cell-based
Description: The inventor previously developed a method to produce irreversibly sickled cells (ISC, which have irreversibly denatured membranes) by exposing sickle red blood cells to a repeated sickling-unsickling cycling in vitro. He used this system to determine the efficacy of a drug in protecting cell membranes (Ohnishi, Br. J. Haematol. 55:665-671, 1983). […] These heavy cells were collected, the amount measured, and the percentage of production calculated (Table 3). As shown in the Table, MR-103 inhibited the formation of irreversibly denatured cells at an extremely low concentration. Even at 20 nM, it inhibited the production of denatured cell almost 50%. […] The subfragment comound MR-117 was also found to have a remarkable effect (Table 4). At a concentration of 60 nM, it inhibited the formation of denatured cells by more than 50%.

In the case of `CSCC[C@@H]1NC(=O)[C@H](CS)NC(=O)[C@H](CCCCN)NC(=O)CNC(=O)[C@H](CCCNC(=N)N)NC(=O)[C@H](CO)NC(=O)[C@H]([C@@H](C)O)NC(=O)[C@H](CC(N)=O)NC(=O)[C@H](Cc2c[nH]cn2)NC(=O)[C@H](CC(C)C)NC(=O)[C@H](CCCNC(=N)N)NC(=O)[C@H](CCC(N)=O)NC(=O)[C@@H]2CSSC[C@@H](C(=O)N[C@@H](Cc3ccc(O)cc3)C(=O)N[C@@H](CO)C(=O)O)NC(=O)[C@H](CCCNC(=N)N)NC(=O)[C@H](CSSC[C@H](N)C(=O)N[C@@H](Cc3c[nH]c4ccccc34)C(=O)N[C@@H](CO)C(=O)N[C@@H](C(C)C)C(=O)N2)NC(=O)[C@H](CCCCN)NC(=O)[C@H](CCCCN)NC(=O)[C@H](CC(N)=O)NC1=O` [MR-117], the “Acute toxicity (LD50)” value [1] is reported as 0.92 mg/kg, the “effect on motor performance after brain focal ischemia (in words)” value ([2]; 1 hour focal ischemia, 3 and 7 days) is reported as “remarkable recovery effect” and the “Motor Score” value ([2]; 3 days after ischemia, scale 0-12, no drug 6.93, sham 11.13) is reported as 9.50 ± 0.56. For the same compound, the “increase of water content of ischemia-exposed hemisphere” value [3] was “inhibited the increase of water content; also recorded: much reduced”, the Irreversibly sickling cells ([4]; 60 nM drug during cycling) was 14.8 percentages and the Reversibly sickling cells ([4]; 60 nM drug during cycling) was 85.2 percentages. For the same compound, the Irreversibly sickling cells ([4]; 100 nM drug during cycling) was 10.3 percentages, the Reversibly sickling cells ([4]; 100 nM drug during cycling) was 89.7 percentages and the Irreversibly sickling cells ([4]; 200 nM drug during cycling) was 0 percentages. For the same compound, the Reversibly sickling cells ([4]; 200 nM drug during cycling) was 100 percentages.
